The source of these data is patent US10934310B2, “Inhibitors of Bruton's tyrosine kinase and method of their use” (JANSSEN PHARMACEUTICA NV, priority 2015, dated 2021).

The test concerns the target unphosphorylated-BTK kinase domain (UP-BTK), GST-tagged human BTK (389-659aa) (Homo sapiens (Human), UniProt Q06187). Nature of the test: BTK Kinase Lanthascreen Binding Assay. Conditions: compound, 50 nM Tracer 236, 2 nM anti-GST antibody, 60 minutes; pIC50 = negative log of the IC50 in molar. As to the method: BTK Kinase Lanthascreen Binding Assay:
A BTK kinase lanthascreen binding assay monitors compound binding to unphosphorylated-BTK kinase domain (UP-BTK), by competing with a fluorescent labeled tracer. […] Data were analyzed using Xlfit™ version 5.3 from ID Business Solutions (Guildford), Microsoft Excel add-in. pIC50 refers to the negative log of the IC50 in molar.

Each structure is given as a SMILES string.

unphosphorylated-BTK kinase domain (UP-BTK), GST-tagged human BTK (389-659aa), sequence (Q06187 389-659): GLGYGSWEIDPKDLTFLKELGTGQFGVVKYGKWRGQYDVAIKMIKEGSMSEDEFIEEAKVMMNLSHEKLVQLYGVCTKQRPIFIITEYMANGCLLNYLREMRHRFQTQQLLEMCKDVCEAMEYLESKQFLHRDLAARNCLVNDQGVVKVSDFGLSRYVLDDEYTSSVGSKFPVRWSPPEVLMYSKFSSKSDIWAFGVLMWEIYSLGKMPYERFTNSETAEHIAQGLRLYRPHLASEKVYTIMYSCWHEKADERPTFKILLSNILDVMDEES

Turning to `C=CC(=O)N[C@H]1CCC[C@H]1NC(=O)c1sc2nccc3c2c1NC(=O)N3c1cnc(Oc2ccccc2)cc1C` (single isomer, unassigned) [Example 171, N-((1R,2S)-2-Acrylamidocyclopentyl)-5-(*S)-(4-methyl-6-phenoxypyridin-3-yl)-4-oxo-4,5-dihydro-3H-1-thia-3,5,8-triazaacenaphthylene-2-carboxamide], the “BTK_I_binding pIC50” value stood at 8.19.
For `C=CC(=O)N[C@H]1CCCC[C@H]1NC(=O)c1sc2nccc3c2c1NC(=O)N3c1cnc(Oc2ccccc2)cc1C` (single isomer, unassigned) [Example 173, N-((1R,2S)-2-Acrylamidocyclohexyl)-5-(*S)-(4-methyl-6-phenoxypyridin-3-yl)-4-oxo-4,5-dihydro-3H-1-thia-3,5,8-triazaacenaphthylene-2-carboxamide], the “BTK_I_binding pIC50” value came out at 8.02.
Under `C=CC(=O)N[C@H]1CCCC[C@H]1NC(=O)c1sc2nccc3c2c1NC(=O)N3c1ccc(OC(C)C)cc1C` (single isomer, unassigned) [Example 174, N-((1R,2S)-2-Acrylamidocyclohexyl)-5-(*R)-(4-isopropoxy-2-methylphenyl)-4-oxo-4,5-dihydro-3H-1-thia-3,5,8-triazaacenaphthylene-2-carboxamide] stands 8.28.
As for `C=CC(=O)N[C@@H]1CC[C@@H](NC(=O)c2sc3nccc4c3c2NC(=O)N4c2ccc(Oc3ccccc3)cc2C)C1` (single isomer, unassigned) [Example 175, N-((1R,3R)-3-Acrylamidocyclopentyl)-5-(*S)-(2-methyl-4-phenoxyphenyl)-4-oxo-4,5-dihydro-3H-1-thia-3,5,8-triazaacenaphthylene-2-carboxamide], the “BTK_I_binding pIC50” value is reported as 8.05.
Consider `C=CC(=O)N[C@@H]1CCC[C@H](NC(=O)c2sc3nccc4c3c2NC(=O)N4c2ccc(Oc3ccccc3)cc2C)C1` (single isomer, unassigned) [Example 176, N-((1S,3R)-3-Acrylamidocyclohexyl)-5-(*S)-(2-methyl-4-phenoxyphenyl)-4-oxo-4,5-dihydro-3H-1-thia-3,5,8-triazaacenaphthylene-2-carboxamide], for which the “BTK_I_binding pIC50” value was determined as 7.78.
Under `CC(=O)N[C@@H]1CCC[C@H](NC(=O)c2sc3nccc4c3c2NC(=O)N4c2ccc(Oc3ccccc3)cc2C)C1` (single isomer, unassigned) [Example 180, N-((1S,3R)-3-Acetamidocyclohexyl)-5-(*S)-(2-methyl-4-phenoxyphenyl)-4-oxo-4,5-dihydro-3H-1-thia-3,5,8-triazaacenaphthylene-2-carboxamide] stands 7.94.
As for `Cc1cc(Oc2ccccc2)ccc1N1C(=O)Nc2c(C(=O)N[C@@H]3CCC[C@@H](N)C3)sc3nccc1c23` (single isomer, unassigned) [Example 181], the figure is 7.33.
As for `C=CC(=O)N[C@@H]1CCC[C@@H](NC(=O)c2sc3nccc4c3c2NC(=O)N4c2ccc(Oc3ccccc3)cc2C)C1` (single isomer, unassigned) [Example 182, N-((1R,3R)-3-Acrylamidocyclohexyl)-5-(*S)-(2-methyl-4-phenoxyphenyl)-4-oxo-4,5-dihydro-3H-1-thia-3,5,8-triazaacenaphthylene-2-carboxamide], the figure is 7.66; as for `C=CC(=O)N[C@@H]1CC[C@H](NC(=O)c2sc3nccc4c3c2NC(=O)N4c2ccc(OC(C)C)cc2C)C1` (single isomer, unassigned) [Example 186, N-((1S,3R)-3-Acrylamidocyclopentyl)-5-(*R)-(4-isopropoxy-2-methylphenyl)-4-oxo-4,5-dihydro-3H-1-thia-3,5,8-triazaacenaphthylene-2-carboxamide], 7.62; as for `C=CC(=O)N[C@@H]1CCC[C@H](NC(=O)c2sc3nccc4c3c2NC(=O)N4c2ccc(OC(C)C)cc2C)C1` (single isomer, unassigned) [Example 190, N-((1S,3R)-3-Acrylamidocyclohexyl)-5-(*R)-(4-isopropoxy-2-methylphenyl)-4-oxo-4,5-dihydro-3H-1-thia-3,5,8-triazaacenaphthylene-2-carboxamide], 7.10.
As for `CC(=O)N[C@@H]1CCC[C@@H](NC(=O)c2sc3nccc4c3c2NC(=O)N4c2ccc(Oc3ccccc3)cc2C)C1` (single isomer, unassigned) [Example 195, N-((1R,3R)-3-Acetamidocyclohexyl)-5-(*S)-(2-methyl-4-phenoxyphenyl)-4-oxo-4,5-dihydro-3H-1-thia-3,5,8-triazaacenaphthylene-2-carboxamide], the “BTK_I_binding pIC50” value is 7.55.
As for `C=CC(=O)N[C@H]1CC[C@@H](NC(=O)c2sc3nccc4c3c2NC(=O)N4c2ccc(Oc3ccccc3)cc2C)C1` (single isomer, unassigned) [Example 196, N-((1R,3S)-3-Acrylamidocyclopentyl)-5-(*S)-(2-methyl-4-phenoxyphenyl)-4-oxo-4,5-dihydro-3H-1-thia-3,5,8-triazaacenaphthylene-2-carboxamide], the figure is 7.12; as for `C=CC(=O)N[C@@H]1CCC[C@H]1NC(=O)c1sc2nccc3c2c1NC(=O)N3c1cnc(Oc2ccccc2)cc1C` (single isomer, unassigned) [Example 200, N-((1R,2R)-2-Acrylamidocyclopentyl)-5-(*S)-(4-methyl-6-phenoxypyridin-3-yl)-4-oxo-4,5-dihydro-3H-1-thia-3,5,8-triazaacenaphthylene-2-carboxamide], 8.18.
Under `C=CC(=O)N[C@H]1CCCC[C@H]1NC(=O)c1sc2nccc3c2c1NC(=O)N3c1ccc(OC2CCC2)nc1C` (single isomer, unassigned) [Example 204, N-((1R,2S)-2-Acrylamidocyclohexyl)-5-(*S)-(6-cyclobutoxy-2-methylpyridin-3-yl)-4-oxo-4,5-dihydro-3H-1-thia-3,5,8-triazaacenaphthylene-2-carboxamide] stands 8.03; under `C=CC(=O)N[C@H]1CCCC[C@H]1NC(=O)c1sc2nccc3c2c1NC(=O)N3c1ccc(OC(C)C)nc1C` (single isomer, unassigned) [Example 209, N-((1R,2S)-2-Acrylamidocyclohexyl)-5-(*S)-(6-isopropoxy-2-methylpyridin-3-yl)-4-oxo-4,5-dihydro-3H-1-thia-3,5,8-triazaacenaphthylene-2-carboxamide], 7.31.
Under `Cc1cc(Oc2ccccc2)ncc1N1C(=O)Nc2c(C(=O)N[C@@H]3CCC[C@@H]3NC(=O)CCCl)sc3nccc1c23` (single isomer, unassigned) [Example 210, N-((1R,2S)-2-(3-Chloropropanamido)cyclopentyl)-5-(*S)-(4-methyl-6-phenoxypyridin-3-yl)-4-oxo-4,5-dihydro-3H-1-thia-3,5,8-triazaacenaphthylene-2-carboxamide] stands 7.19; under `C=CC(=O)N[C@@H]1CCCC[C@H]1NC(=O)c1sc2nccc3c2c1NC(=O)N3c1cnc(Oc2ccccc2)cc1C` (single isomer, unassigned) [Example 213, N-((1R,2R)-2-Acrylamidocyclohexyl)-5-(*S)-(4-methyl-6-phenoxypyridin-3-yl)-4-oxo-4,5-dihydro-3H-1-thia-3,5,8-triazaacenaphthylene-2-carboxamide], 7.30.
With `C=CC(=O)N[C@@H]1CCC[C@@H](NC(=O)c2sc3nccc4c3c2NC(=O)N4c2ccc(OC(C)C)cc2C)C1` (single isomer, unassigned) [Example 215, N-((1R,3R)-3-Acrylamidocyclohexyl)-5-(*R)-(4-isopropoxy-2-methylphenyl)-4-oxo-4,5-dihydro-3H-1-thia-3,5,8-triazaacenaphthylene-2-carboxamide], the “BTK_I_binding pIC50” value is 7.13.
Take `C=CC(=O)N[C@@H]1CCC[C@H]1NC(=O)c1sc2nccc3c2c1NC(=O)N3c1cnc(Oc2ccccc2)nc1C` (single isomer, unassigned) [Example 219, N-((1R,2R)-2-Acrylamidocyclopentyl)-5-(*S)-(4-methyl-2-phenoxypyrimidin-5-yl)-4-oxo-4,5-dihydro-3H-1-thia-3,5,8-triazaacenaphthylene-2-carboxamide]: the “BTK_I_binding pIC50” value came out at 7.94.
Consider `C=CC(=O)N[C@H]1CCCC[C@H]1NC(=O)c1sc2nccc3c2c1NC(=O)N3c1cnc(OC2CCC2)cc1C` (single isomer, unassigned) [Example 221, N-((1R,2S)-2-Acrylamidocyclohexyl)-5-(*S)-(6-cyclobutoxy-4-methylpyridin-3-yl)-4-oxo-4,5-dihydro-3H-1-thia-3,5,8-triazaacenaphthylene-2-carboxamide], for which the “BTK_I_binding pIC50” value worked out at 8.29.
In the case of `C=CC(=O)N[C@H]1CC[C@H](NC(=O)c2sc3nccc4c3c2NC(=O)N4c2ccc(Oc3ccccc3)cc2C)C1` (single isomer, unassigned) [Example 226, N-((1S,3S)-3-Acrylamidocyclopentyl)-5-(*S)-(2-methyl-4-phenoxyphenyl)-4-oxo-4,5-dihydro-3H-1-thia-3,5,8-triazaacenaphthylene-2-carboxamide], the “BTK_I_binding pIC50” value is 6.85.
As for `Cc1cc(Oc2ccccc2)ccc1N1C(=O)Nc2c(C(=O)N[C@H]3CCC[C@@H](N)C3)sc3nccc1c23` (single isomer, unassigned) [Example 230, N-((1S,3R)-3-Aminocyclohexyl)-5-(*S)-(2-methyl-4-phenoxyphenyl)-4-oxo-4,5-dihydro-3H-1-thia-3,5,8-triazaacenaphthylene-2-carboxamide], the “BTK_I_binding pIC50” value is listed as 7.24.
Under `C=CC(=O)N[C@H]1CCC[C@H](NC(=O)c2sc3nccc4c3c2NC(=O)N4c2ccc(Oc3ccccc3)cc2C)C1` (single isomer, unassigned) [Example 231, N-((1S,3S)-3-Acrylamidocyclohexyl)-5-(*S)-(2-methyl-4-phenoxyphenyl)-4-oxo-4,5-dihydro-3H-1-thia-3,5,8-triazaacenaphthylene-2-carboxamide] stands 6.56.
